Experimental data reported in PMC8042910, “Adiponectin-mimetic novel nonapeptide rescues aberrant neuronal metabolic-associated memory deficits in Alzheimer’s disease” (Molecular Neurodegeneration, 2021).
Residues, ends and D or L forms follow the SMILES beside them.

How the values were obtained:
[1] = test system: activated caspase-3 and cleaved PARP-1; assay: Apoptotic and neurodegenerative markers in APP/PS1 mouse brain, immunoblot; type: in vivo; conditions: APP/PS1 mice, 5 μg/g, i.p., alternating days for 45 days, n = 8/group
Protocol: The protein concentrations of the homogenates of mouse brain tissue and cell lysates in vitro were measured using a Bio-Rad protein assay kit (Bio-Rad Laboratories, Hercules, CA), and immunoblotting was performed as we previously described, using primary antibodies (detailed information described in the supplementary Table 1). Western blotting membranes have been cut prior to original western blot images and original western blot images are available at supplementary material.

WT C57BL/6 N mice = type: in vivo, mouse; conditions: i.p. bolus 10, 20, 30, 40 and 50 mg/kg, observed 1 week, n = 5/group, data not shown
Protocol: To optimize and analyze the toxicity and effective dose of Os-pep, we performed a separate group of studies using wild-type (WT) male C57BL/6 N mice to examine the toxicity of Os-pep in vivo. The WT mice were rearranged into 5 groups (n = 5 mice/group). Os-pep was administered in bolus dosages of 10, 20, 30, 40 and 50 mg/kg in normal saline to the respective groups, and the Veh-injected mice received the same amount of normal saline as WT mice. We checked for signs of systemic toxicity, such as head tilt, tremor, abnormal physical activity and squinting, for 1 week in WT mice that had been treated with i.p. bolus doses of Os-pep (10, 20, 30, 40 and 50 mg/kg).
To optimize and analyze the toxicity and effective dose of Os-pep, we performed a separate group of studies in order to assess signs of systemic toxicity, such as head tilt, tremor, changes in physical activity and squinting, for 1 week in normal WT mice injected i.p. with bolus doses of Os-pep (10, 20, 30, 40 and 50 mg/kg) to investigate the safety profile of bolus doses of Os-pep.

mice = assay: Safety of chronic optimized dosage regimen in mice; type: in vivo, mouse; conditions: 5 μg/g, i.p.
Protocol: Os-pep was dissolved in double-deionized distilled water and then prepared in normal saline to obtain the final administered concentration. The AβO, APP/PS1, Adipo^−/− and WT mice were injected i.p. with Os-pep at a dosage of 5 μg/g on alternating days for 45 days. WT, Veh-injected transgenic-APP/PS1 and Adipo^−/− mice were injected with the same volume of double-deionized water and normal saline. The WT control and sham mice as well as the Veh-injected AβO, APP/PS1, Adipo^−/− and HFD mice received the same volume of double-deionized distilled water or normal saline.
We monitored and weighed the mice three times per week to examine the effect of Os-pep dosage regimen (5 µg/g, i.p., on alternating days for 45 days) on the animals’ body weights. At the completion of the treatment, we calculated the average change in the body weight of the mice. At the completion of the treatments and behavioral experiments, blood samples were collected by cardiac puncture of the right atrium. […]

LTP = assay: Electrophysiology, LTP in hippocampal CA1 slices; type: in vivo, mouse
HT22 cells = assay: ApoTox-Glo Triplex assay (viability, cytotoxicity, caspase 3/7), AβO-exposed cells; type: cell-based, mouse; conditions: 12 h
Protocol: The ApoTox-Glo^TM Triplex assay (Promega, Madison, WI) was performed to assess the viability, cytotoxicity and caspase^3/7 activation in the human neuroblastoma SH-SY5Y and mouse hippocampal HT22 cells. SH-SY5Y and HT22 cells (2×10^4/ml) were cultured in 96-well plates (Thermo Fisher Scientific) containing DMEM supplemented with 10% FBS and 1% antibiotics and incubated at 37°C in a humidified incubator containing 5% CO2. After reaching 70% confluency, the cells were treated with AβO (1 µM) and different concentrations of Os-pep (0.5, 1, 5 and 10 µM) for 12 h. The control group (cells treated with 0.01% DMSO) was also analyzed. In addition, SH-SY5Y and HT22 cells were transfected with the AdipoR1 siRNA (h) (SC-60123) and AdipoR1 siRNA (m) (SC-60124), respectively, and treated with AβO (1 µM) and Os-pep (10 µM) for 12 h; the control group was transfected with the negative siRNA (Ambion, Thermo Fisher Scientific) and treated with 0.01% DMSO. The assay was performed according to our previously described protocols.

[2] = Body weight measurements of the mice; type: in vivo, mouse; conditions: APP/PS1, HFD and Adipo−/− mice vs Veh-treated, 5 μg/g, i.p., alternating days for 45 days, n = 13/group
Protocol: We monitored and weighed the mice three times per week to examine the effect of Os-pep dosage regimen (5 µg/g, i.p., on alternating days for 45 days) on the animals’ body weights. At the completion of the treatment, we calculated the average change in the body weight of the mice. At the completion of the treatments and behavioral experiments, blood samples were collected by cardiac puncture of the right atrium. The serum was collected from whole blood by centrifugation (3000 rpm for 10 min) at room temperature and was stored at -20 °C until it was processed for biochemical analyses by SCL Labs (Seoul Medical Science Institute) to evaluate various metabolic parameters, e.g., glucose (Glu), free fatty acids (FFA), total cholesterol (TC), triglycerides (TG), high density lipoprotein (HDL) and low density lipoprotein (LDL) levels.

Synap and PSD95 = Synap and PSD95 in APPswe/ind-overexpressing SH-SY5Y cells, immunoblot; type: cell-based, human; conditions: Os-pep 10 μM
Protocol: Human neuroblastoma SH-SY5Y cells were seeded (in 6-well culture plates for immunoblotting and in chamber slides for immunofluorescence) in DMEM (Dulbecco’s modified Eagle medium) containing 10% fetal bovine serum (FBS) and 1% antibiotics (penicillin-streptomycin) and incubated at 37 °C in humidified air containing 5% CO2. Once the cells reached 70–80% confluence, the cells were transfected using the pCAX vector containing the APPswe/ind gene using Lipofectamine 3000 (Life Technologies) according to the provider’s protocols. AdipoR1 siRNA (h) (SC-60123) and AMPK siRNA (h) (SC-45312) (Santa Cruz Biotechnology, Inc.) were used at a concentration of 10 μM per transfection and expressed for 72 h according to the manufacturer’s protocol (Santa Cruz Biotechnology, Inc.). A negative siRNA (Ambion, Thermo Fisher Scientific) was used as a control. Seventy-two hours after the transfections, the cells were exposed to Os-pep (10 μM) for 12 h and then subjected to immunoblotting and immunofluorescence analyses.
Human neuroblastoma SH-SY5Y cells were treated with 1 µM of insulin for 48 h to produce intrinsic insulin-resistant human neuroblastoma (SH-SY5YIR) cells. […]

C[C@@H](O)[C@H](NC(=O)[C@@H]1CCCN1C(=O)CNC(=O)[C@H](CS)NC(=O)[C@@H]1CCCN1C(=O)CNC(=O)[C@H](CCC(N)=O)NC(=O)[C@@H](NC(=O)[C@@H](N)CS)[C@@H](C)O)C(=O)O [Os-pep] (H-CTQGPCGPT-OH; N-terminus and C-terminus assumed)
activated caspase-3 and cleaved PARP-1 levels [1]: significantly decreased
signs of systemic toxicity (head tilt, tremor, physical activity, squinting) (WT C57BL/6 N mice): no toxicity was observed
liver or kidney dysfunction (serum biochemical parameters) (mice; alternating days for 45 days, APP/PS1, HFD and Adipo−/− mice): did not induce liver or kidney dysfunction
undesirable effects of chronic Os-pep treatment alone (mice; on alternating days for 45 days, Os-pep alone): did not induce any undesirable effects
LTP (LTP; APP/PS1 and Adipo−/− mice, 5 μg/g, i.p., alternating days for 45 days, n = 5–6/group): improved LTP
potentiating effect on LTP with AdipoR1 silencing (LTP; AβO mice with shRNA-mediated silencing of AdipoR1 gene): significantly attenuated
suppression of LTP, scramble shRNA (LTP; scramble shRNA-treated AβO mice, 5 μg/g, i.p., alternating days for 45 days): almost completely rescued to a level comparable to that of normal controls
AβO-induced toxicity with AdipoR1 siRNA (HT22 cells; AdipoR1 siRNA-transfected HT22, AβO 1 μM, Os-pep 10 μM): did not reduce the AβO-induced toxicity
AβO neurotoxicity (viability, cytotoxicity, caspase 3/7) (HT22 cells; HT22, AβO 1 μM, Os-pep 10 μM): significantly reduced AβO (1 μM) neurotoxicity
neurotoxic effects of AβO (HT22 cells; HT22, AβO 1 μM, cotreatment 0.5, 1, 5 and 10 μM): reduced the neurotoxic effects of AβO
fold-increase in body weight [2]: smaller fold-increase in the body weight
Synap and PSD95 expression with AdipoR1 siRNA (Synap and PSD95; APPswe/ind-overexpressing SH-SY5Y cells exposed to AdipoR1 siRNA): did not restore or increase
Synap and PSD95 expression (Synap and PSD95; APPswe/ind-overexpressing SH-SY5Y cells): restored and significantly increased
